Test results from article PMC6161601 (Journal of Enzyme Inhibition and Medicinal Chemistry, 2018).
Several values for one entry are separate records, joined by “and”; a condition that tells them apart may be missing. Identical values can stand only once. Entries after “also recorded” stand apart in the source; their conditions may differ. Like-named read-outs stand apart in the source and are kept apart here.

Columns and labels:
[1] = biological target: T1, human erythrocyte acetylcholinesterase (AChE) (Homo sapiens, UniProt P22303); experiment: biochemical; conditions: for SI AChE: IC50 BChE/IC50 AChE; for IC50: human erythrocyte AChE, mean ± SD of three independent experiments
T1 construct: from tissue; host or cells: haemolysed erythrocytes of healthy human donors
T1 sequence (P22303 other isoform, or with tags, fused parts or gaps): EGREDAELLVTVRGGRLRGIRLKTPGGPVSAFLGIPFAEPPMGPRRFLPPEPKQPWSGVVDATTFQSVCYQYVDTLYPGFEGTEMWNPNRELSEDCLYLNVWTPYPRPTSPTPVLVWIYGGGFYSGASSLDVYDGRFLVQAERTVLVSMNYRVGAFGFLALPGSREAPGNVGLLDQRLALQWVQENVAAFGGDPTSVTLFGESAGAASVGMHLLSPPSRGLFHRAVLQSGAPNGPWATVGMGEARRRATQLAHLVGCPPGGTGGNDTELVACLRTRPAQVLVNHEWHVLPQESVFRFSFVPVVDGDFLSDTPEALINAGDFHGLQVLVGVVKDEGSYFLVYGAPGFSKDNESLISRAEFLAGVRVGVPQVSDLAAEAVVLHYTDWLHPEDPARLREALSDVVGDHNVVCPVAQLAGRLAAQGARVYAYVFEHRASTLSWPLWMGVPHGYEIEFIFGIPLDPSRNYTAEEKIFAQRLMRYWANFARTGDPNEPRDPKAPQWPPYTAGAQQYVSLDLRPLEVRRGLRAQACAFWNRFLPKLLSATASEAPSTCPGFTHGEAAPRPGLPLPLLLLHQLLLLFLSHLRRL
Procedure: (§1) Blood samples were obtained from healthy donors from the Voievodal Specialized Hospital in Łódź, Poland (Wojewódzki Specjalistyczny Szpital im. Dr W. Biegańskiego w Łodzi). The blood was collected into vacuum tubes containing sodium citrate. Erythrocytes were separated from plasma by centrifugation (3000 × g, 10 min, 20 °C) with a Micro 22 R centrifuge (Hettich ZENTRIFUGEN, Tuttlingen, Germany) and washed three times with 0.9% saline. Afterwards, red cells were haemolysed by freezing and stored at a temperature of –30 °C; before each experiment, they were restored at 37° C for 15 min and used to determine AChE activity. […] The studies on the biological material were approved by the Bioethics Committee of the Medical University of Lodz (RNN/27/18/KE).
(§2) The activity of both cholinesterases (AChE and BuChE) were conducted using a spectrophotometric method developed by Ellman with previously described modifications[25]^,[30]. […] 400-fold diluted solution of haemolysed erythrocytes or diluted plasma (200 times) was incubated for 15 min (37° C) with DTNB and tested compound at an appropriate concentration, and the reaction was started by addition of substrate (ATC or BTC). The final volume of a sample was 500 µL.
(§3) AChE Selectivity Index (SI) was calculated with the aid of the following formula: SI = IC50 of BChE/IC50 of AChE. In turn BuChE SI was defined as IC50 of AChE/IC50 of BChE. Linear regression (Hanes–Woolf plots) were used to estimate the maximal velocity (Vmax) and the Michaelis constant (Km).

[2] = biological target: T2, human plasma butyrylcholinesterase (BuChE) (Homo sapiens, UniProt P06276); experiment: biochemical; conditions: for SI BuChE: IC50(AChE)/IC50(BChE); for IC50: human plasma BuChE, mean ± SD of three independent experiments
T2 construct: Plasma for determination of BuChE activity was obtained by centrifuging the blood; from tissue; host or cells: plasma of healthy human donors
T2 sequence (P06276 29-602): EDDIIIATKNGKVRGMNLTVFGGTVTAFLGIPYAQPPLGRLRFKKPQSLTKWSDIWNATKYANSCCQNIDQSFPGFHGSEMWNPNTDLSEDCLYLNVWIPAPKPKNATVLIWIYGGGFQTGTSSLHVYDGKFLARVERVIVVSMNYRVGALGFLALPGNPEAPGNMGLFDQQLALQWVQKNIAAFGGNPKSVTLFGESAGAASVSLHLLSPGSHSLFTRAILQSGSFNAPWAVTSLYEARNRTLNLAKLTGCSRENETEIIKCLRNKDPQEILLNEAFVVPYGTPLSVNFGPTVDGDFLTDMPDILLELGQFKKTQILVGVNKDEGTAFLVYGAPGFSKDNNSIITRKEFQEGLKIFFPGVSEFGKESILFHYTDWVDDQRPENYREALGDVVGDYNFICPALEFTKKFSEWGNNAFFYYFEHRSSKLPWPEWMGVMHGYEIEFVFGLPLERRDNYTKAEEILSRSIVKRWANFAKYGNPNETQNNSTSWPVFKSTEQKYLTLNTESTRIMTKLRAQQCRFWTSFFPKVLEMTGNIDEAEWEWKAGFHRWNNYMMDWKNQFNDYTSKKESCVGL
Procedure: as §1, §2, §3

[3] = biological target: T1, human erythrocyte acetylcholinesterase (AChE); experiment: Kinetic parameters and type of AChE inhibition (Hanes–Woolf); assay type: biochemical; conditions: for Vmax(i) AChE: mean ± SD; for vmax AChE, individual experiments B1–B3: inhibitor at 1/3 of IC50; for vmax AChE, individual experiments C1–C3: inhibitor at IC50
Procedure: (§4) The absorbance was recorded at λ = 436 nm using a CECIL 2021 spectrophotometer (CECIL Instruments Limited, Cambridge, UK) with a thermostatic water flow (temperature 37° C).
as §3
(§5) To establish the type of inhibition, additional experiments were conducted with various concentrations of substrates (ATC, BTC), and the kinetic parameters of the enzymatic reactions were obtained using Hanes–Woolf equation, which is a graphical representation of enzyme kinetics in which the ratio of the initial substrate concentration [S] to the reaction velocity v is plotted against [S]. […]

[4] = biological target: T2, human plasma butyrylcholinesterase (BuChE); experiment: Kinetic parameters and type of BuChE inhibition (Hanes–Woolf); assay type: biochemical; conditions: for Vmax(i) BuChE: mean ± SD; for vmax BuChE, individual experiments B1–B3: inhibitor at 1/3 of IC50; for vmax BuChE, individual experiments C1–C3: inhibitor at IC50
Procedure: as §4, §3, §5

[5] = biological target: T3, BuChE (Homo sapiens, UniProt P06276); experiment: BuChE inhibition with excess of substrate (BTC); assay type: biochemical; conditions: BTC 2.5 mmol/L
T3 construct: Plasma for determination of BuChE activity was obtained by centrifuging the blood; from tissue; host or cells: plasma of healthy human donors
T3 sequence (P06276 29-602): as above

[6] = biological target: T4, Aβ42 peptide (Homo sapiens, UniProt P05067); experiment: Beta-amyloid (Aβ 1–42) aggregation, SensoLyte ThT kit; assay type: biochemical
T4 construct: Beta-amyloid (Aβ 1–42) aggregation studies were conducted using SensoLyte ThT Aβ42 Aggregation kit; purchased AnaSpec, Inc, Fremont, CA
T4 sequence (P05067 672-713): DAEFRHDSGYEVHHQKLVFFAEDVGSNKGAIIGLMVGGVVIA
Procedure: Beta-amyloid (Aβ 1–42) aggregation studies were conducted using SensoLyte ThT Aβ42 Aggregation kit (AnaSpec, Inc, Fremont, CA). Aβ42 peptide was dissolved in cold (4 °C) assay buffer and left to hydrate for a few minutes. The solution was spined at 10,000 rpm for 5 min at 4 °C to centrifuge out any precipitated material. […] The final volume of the test samples was 100 µL. Simultaneously, the positive control and negative control containing morin at the final concentration of 100 µmol/L were established. […] The measurements of fluorescence intensity expressed as relative fluorescence units (RFU) were taken for 90 min with 5 min intervals. The fluorescence intensity measured for positive control equals 100% of Aβ aggregation and was used for estimation of inhibition properties of tested biguanides.
Statistical analysis of data obtained in Aβ aggregation assay was conducted with a commercially available package (GraphPad Prism 5, La Jolla, CA). The results were expressed as the mean ± standard deviation (SD) of measurements conducted in triplicates or quadruplicates. One or two-way ANOVA and subsequent post hoc tests were used for intergroup comparisons. The results were considered significant at p values lower than 0.05.

[7] = biological target: T5, AChE (Homo sapiens, UniProt P22303); assay type: biochemical
T5 construct: 400-fold diluted solution of haemolysed erythrocytes or diluted plasma (200 times) was incubated; from tissue; host or cells: haemolysed erythrocytes of healthy human donors
T5 sequence (P22303 other isoform, or with tags, fused parts or gaps): as the sequence (P22303 other isoform, or with tags, fused parts or gaps) above

[8] = biological target: T1, human erythrocyte acetylcholinesterase (AChE); conditions: previous study; cited from earlier work
[9] = biological target: T3, BuChE; conditions: BTC 0.75 mmol/L; previously published; cited from earlier work

Row | Structure (SMILES) | SI AChE [1] | IC50 [1] | SI BuChE [2] | IC50 [2] | I: type of inhibition, AChE [3] | type of AChE inhibition [3] | vmax AChE, mean ± SD ([3]; B: inhibitor at 1/3 of IC50) | Vmax(i) AChE ([3]; B: inhibitor at 1/3 of IC50) | vmax AChE, mean ± SD ([3]; C: inhibitor at IC50) | Vmax(i) AChE ([3]; C: inhibitor at IC50) | vmax AChE, individual experiments B1–B3 [3] | vmax AChE, individual experiments C1–C3 [3] | I: type of inhibition, BuChE [4] | type of BuChE inhibition [4] | vmax BuChE, mean ± SD ([4]; B: inhibitor at 1/3 of IC50) | Vmax(i) BuChE ([4]; B: inhibitor at 1/3 of IC50) | vmax BuChE, mean ± SD ([4]; C: inhibitor at IC50) | Vmax(i) BuChE ([4]; C: inhibitor at IC50) | vmax BuChE, individual experiments B1–B3 [4] | vmax BuChE, individual experiments C1–C3 [4] | also measured
1 | CN(C)C(=N)N=C(N)NS(=O)(=O)c1ccc([N+](=O)[O-])cc1 [Compound 3] | 0.15 | 3.82 ± 0.278 mM | 6.82 | 0.561 ± 0.192 mM | M (M: mixed type) | mixed inhibition; also recorded: mixed way | 147.43 ± 22.32 mA/min | 0.147 ± 0.022 A/min | 112.29 ± 24.418 mA/min | 0.112 ± 0.024 A/min | 173.106 mA/min and 136.619 mA/min and 132.580 mA/min | 136.281 mA/min and 87.466 mA/min and 113.130 mA/min | M (M: mixed type) | mixed manner | 207.61 ± 5.30 mA/min | 0.208 ± 0.005 A/min | 180.05 ± 19.37 mA/min | 0.180 ± 0.019 A/min | 207.848 mA/min and 202.204 mA/min and 212.802 mA/min | 166.268 mA/min and 171.680 mA/min and 202.204 mA/min | 
2 | CN(C)C(=N)N=C(N)NS(=O)(=O)c1ccccc1[N+](=O)[O-] [Compound 4] | 0.30 | 2.86 ± 0.283 mM | 3.28 | 0.871 ± 0.227 mM | M (M: mixed type) | mixed inhibition | 162.74 ± 5.00 mA/min | 0.163 ± 0.005 A/min | 118.77 ± 19.443 mA/min | 0.119 ± 0.019 A/min | 161.000 mA/min and 168.393 mA/min and 158.846 mA/min | 110.000 mA/min and 141.058 mA/min and 105.263 mA/min |  | non-competitively | 229.87 ± 19.38 mA/min | 0.229 ± 0.019 A/min | 174.32 ± 5.91 mA/min | 0.174 ± 0.006 A/min | 229.000 mA/min and 249.675 mA/min and 210.944 mA/min | 174.000 mA/min and 180.395 mA/min and 168.586 mA/min | 
3 | CCCCCCSNC(N)=NC(=N)N(C)C [Compound 1] | 0.59 | 3.17 ± 0.411 mM |  | 1.88 ± 0.558 mM |  | non-competitive inhibition; also recorded: noncompetitively | 202.18 ± 7.39 mA/min | 0.202 ± 0.007 A/min | 161.59 ± 24.42 mA/min | 0.161 ± 0.024 A/min | 200.260 mA/min and 210.362 mA/min and 195.955 mA/min | 141.006 mA/min and 155.200 mA/min and 188.583 mA/min | M (M: mixed type) | mixed-type inhibition; also recorded: mixed manner | 206.94 ± 15.02 mA/min | 0.207 ± 0.015 A/min | 174.27 ± 11.70 mA/min | 0.174 ± 0.012 A/min | 195.000 mA/min and 223.809 mA/min and 202.024 mA/min | 161.000 mA/min and 178.705 mA/min and 183.120 mA/min | 
4 | CCCCC(CC)CSNC(N)=NC(=N)N(C)C (stereo not shown) [Compound 2] | 0.09 | 3.68 ± 0.693 mM |  | 0.335 ± 0.107 mM | M (M: mixed type) | mixed type | 218.43 ± 5.69 mA/min | 0.218 ± 0.005 A/min | 160.75 ± 10.82 mA/min | 0.160 ± 0.011 A/min | 225.000 mA/min and 215.564 mA/min and 214.749 mA/min | 153.011 mA/min and 156.143 mA/min and 173.124 mA/min | M (M: mixed type) | mixed manner; also recorded: mixed-type | 182.27 ± 9.29 mA/min | 0.182 ± 0.009 A/min | 103.11 ± 19.12 mA/min | 0.103 ± 0.019 A/min | 192.871 mA/min and 178.466 mA/min and 175.485 mA/min | 115.727 mA/min and 81.110 mA/min and 112.514 mA/min | 
5 | CN(C)C(=N)N=C(N)N [Metformin, metformin, reference compound] |  |  |  |  |  |  |  |  |  |  |  |  |  |  |  |  |  |  |  |  | effect on BuChE activity (words) [5]: did not reveal anti-BuChE activity; effect on BuChE activity (words) ([5]; listed as metformin): not to affect the enzyme activity; inhibition at 3000 µM ([5]; metformin at 3 mmol/L): 1.1 ± 0.51%; inhibition at 600 µM ([6]; 600 µmol/L, read-out: maximal inhibition of Aβ aggregation): 11.3%; effect on Aβ fibrillation vs positive control ([6]; both tested concentrations, 5–90 min): did not significantly affect; also recorded: not to significantly affect; type of AChE inhibition ([7]; at 1/2 IC50 for AChE): mixed-type; Vmax AChE ([7]; each at 1/2 IC50 for AChE: metformin 1175, donepezil 0.0125, compound 5 106.0 µmol/L, alone or in mixture): 0.179 ± 0.020 A/min; type of AChE inhibition [8]: mixed inhibition; BuChE inhibition [9]: up to 21.2%
